The values that follow are results of earlier work, collected in patent publication US20050287214A1, “Squeeze controlled oral dosage form” (priority 2004, published 2005).

For this data set the following is noted: solubility of the active agent as stated in the formulation tables; no method given.

The structures appear in SMILES notation.

On to `CNC(=C[N+](=O)[O-])NCCSCc1ccc(CN(C)C)o1` [Ranitidine], for which the solubility entry was “Ranitidine (solubility = 880 mg/ml)”.
